This assay deals with CD2F1 mice, intracerebral P388 leukemia, median survival T/C%. In words: NCI In Vivo Anticancer Drug Screen. Data for tumor model P388 Leukemia (intracerebral) in CD2F1 (CDF1) mice. The conditions noted are these: endpoint: median survival time, higher = longer survival. The protocol:
The antitumor activity of compounds was measured in mice bearing transplantable tumors. Survival or tumor size were measured and the results are expressed as the measurement made in the treated group (T) divided by the measurement made in the vehicle treated control group (C). The tumor model used in this assay is P388 Leukemia (intracerebral) in CD2F1 (CDF1) mice

Where [1] appears, read: dose: 12.5 mg/kg/injection, schedule: Q01DX009 (ip), vehicle: saline with Tween-80.
[2] abbreviates: dose: 25.0 mg/kg/injection, schedule: Q01DX009 (ip), vehicle: saline with Tween-80.
Setting [3] is: dose: 50.0 mg/kg/injection, schedule: Q01DX009 (ip), vehicle: saline with Tween-80.
Setting [4] is: dose: 32.0 mg/kg/injection, schedule: Q01DX005 (ip), vehicle: saline.

“And” between values parts separate entries of the source, which are not always exact repeats. Equal values may be shown once. Toxic doses and inconclusive results are not listed.

For the molecule `O=NN(CCCl)C(=O)NCCCl`, the T/C by setting is: (dose: 8.0 mg/kg/injection, schedule: Q01DX005 (iv), vehicle: saline + alcohol) 160 % of control; (dose: 30.0 mg/kg/injection, schedule: Q01DX001 (ip), vehicle: saline + alcohol) 202 % of control; (dose: 40.0 mg/kg/injection, schedule: Q01DX001 (ip), vehicle: saline + alcohol) 202 % of control.
`[N-]=[N+]=CC(=O)CCC(N)C(=O)O` (stereo unspecified): the T/C was 107 % of control (dose: 0.05 mg/kg/injection, schedule: Q01DX009 (ip), vehicle: saline); 105 % of control (dose: 0.2 mg/kg/injection, schedule: Q01DX009 (ip), vehicle: saline); 103 % of control (dose: 0.4 mg/kg/injection, schedule: Q01DX009 (ip), vehicle: saline).
Turning to `CSCS(=O)C[C@H](CO)NC(=O)/C=C/c1c(C)[nH]c(=O)[nH]c1=O` (stereo partly specified), the T/C is 103 % of control and 104 % of control (dose: 0.06 mg/kg/injection, schedule: Q01DX005 (ip), vehicle: Klucel (hydroxypropylcellulose) (HPC)); 101 % of control and 105 % of control (dose: 0.12 mg/kg/injection, schedule: Q01DX005 (ip), vehicle: Klucel (hydroxypropylcellulose) (HPC)); 107 % of control and 110 % of control (dose: 0.25 mg/kg/injection, schedule: Q01DX005 (ip), vehicle: Klucel (hydroxypropylcellulose) (HPC)); 106 % of control and 108 % of control (dose: 0.5 mg/kg/injection, schedule: Q01DX005 (ip), vehicle: Klucel (hydroxypropylcellulose) (HPC)).
Regarding `Cc1cnc(/C=N\NC(N)=S)c2cccc(N)c12`, the T/C reads like this: under setting [1], 99 % of control; under setting [2], 102 % of control; under setting [3], 104 % of control; (dose: 100.0 mg/kg/injection, schedule: Q01DX009 (ip), vehicle: saline with Tween-80) 98 % of control.
Turning to `CCCCCCCCCCCCCC(=O)OC12CC(C)C3(O)C(C=C(CO)C(O)C4(O)C(=O)C(C)=CC43)C1C2(C)C` (stereo unspecified), the T/C was 103 % of control (dose: 62.5 micrograms/kg/injection, schedule: Q01DX009 (ip), vehicle: acetone); 98 % of control (dose: 125.0 micrograms/kg/injection, schedule: Q01DX009 (ip), vehicle: acetone); 88 % of control (dose: 250.0 micrograms/kg/injection, schedule: Q01DX009 (ip), vehicle: acetone); 94 % of control (dose: 500.0 micrograms/kg/injection, schedule: Q01DX009 (ip), vehicle: acetone).
In the case of `CCC1=C(c2ccc(OC)cc2)CCC(C(=O)O)C1C` (stereo unspecified), the T/C (dose: 4.0 mg/kg/injection, schedule: Q01DX005 (ip), vehicle: saline) is 99 % of control and 104 % of control; the T/C (dose: 8.0 mg/kg/injection, schedule: Q01DX005 (ip), vehicle: saline) is 95 % of control and 100 % of control; the T/C (dose: 16.0 mg/kg/injection, schedule: Q01DX005 (ip), vehicle: saline) is 90 % of control and 98 % of control; the T/C under setting [4] was 96 % of control and 102 % of control.
As to `COc1cccc2c1C(=O)c1c(O)c3c(c(O)c1C2=O)C[C@@](O)(/C(C)=N/NC(=O)c1ccccc1)C[C@@H]3OC1CC(N)C(O)C(C)O1` (stereo partly specified), the T/C is, setting by setting: (dose: 1.0 mg/kg/injection, schedule: Q01DX009 (ip), vehicle: saline with Tween-80) 111 % of control; (dose: 1.0 mg/kg/injection, schedule: Q01DX009 (ip), vehicle: saline) 103 % of control and 106 % of control; (dose: 2.0 mg/kg/injection, schedule: Q01DX009 (ip), vehicle: saline with Tween-80) 90 % of control and 108 % of control; (dose: 2.0 mg/kg/injection, schedule: Q01DX009 (ip), vehicle: saline) 113 % of control and 106 % of control; (dose: 4.0 mg/kg/injection, schedule: Q01DX009 (ip), vehicle: saline with Tween-80) 114 % of control and 116 % of control; (dose: 4.0 mg/kg/injection, schedule: Q01DX009 (ip), vehicle: saline) 113 % of control and 111 % of control. The T/C is, setting by setting: (dose: 8.0 mg/kg/injection, schedule: Q01DX009 (ip), vehicle: saline with Tween-80) 106 % of control and 111 % of control; (dose: 8.0 mg/kg/injection, schedule: Q01DX009 (ip), vehicle: saline) 100 % of control and 103 % of control; (dose: 16.0 mg/kg/injection, schedule: Q01DX009 (ip), vehicle: saline with Tween-80) 90 % of control and 94 % of control.
In the case of `CCCCCCCCCCCCCCCCCC(=O)NC(Cc1ccc(N(CCCl)CCCl)cc1)C(=O)O` (stereo unspecified), the T/C by setting is: (dose: 1.88 mg/kg/injection, schedule: Q03HX008 (ip), vehicle: saline) 110 % of control; (dose: 3.75 mg/kg/injection, schedule: Q03HX008 (ip), vehicle: saline) 115 % of control.
Take `CN(CO)c1nc(N(C)CO)nc(N(C)CO)n1`: the T/C is 98 % of control (dose: 3.12 mg/kg/injection, schedule: Q01DX009 (ip), vehicle: saline with Tween-80); 106 % of control (dose: 6.25 mg/kg/injection, schedule: Q01DX009 (ip), vehicle: saline with Tween-80); 100 % of control and 101 % of control under setting [1]; 116 % of control and 104 % of control under setting [2]; 115 % of control and 93 % of control (dose: 50.0 mg/kg/injection, schedule: Q01DX009 (ip), vehicle: Klucel (hydroxypropylcellulose) (HPC)); 103 % of control and 106 % of control under setting [3]. In addition, the T/C (dose: 100.0 mg/kg/injection, schedule: Q01DX009 (ip), vehicle: Klucel (hydroxypropylcellulose) (HPC)) is 121 % of control and 112 % of control.
On to `O=C1C=CN(C2OC(CO)C(O)C2O)C(=O)C1` (stereo unspecified), for which the T/C reads like this: (dose: 12.5 mg/kg/injection, schedule: Q01DX009 (ip), vehicle: saline) 112 % of control; (dose: 25.0 mg/kg/injection, schedule: Q01DX009 (ip), vehicle: saline) 106 % of control; (dose: 50.0 mg/kg/injection, schedule: Q01DX009 (ip), vehicle: saline) 104 % of control; (dose: 100.0 mg/kg/injection, schedule: Q01DX009 (ip), vehicle: saline) 106 % of control; (dose: 200.0 mg/kg/injection, schedule: Q01DX009 (ip), vehicle: saline) 94 % of control; (dose: 400.0 mg/kg/injection, schedule: Q01DX009 (ip), vehicle: saline) 94 % of control.
For `CCN(CC)CCCC(C)Nc1c2ccc(Cl)cc2nc2ccc(OC)cc12` (stereo unspecified), the T/C reads like this: (dose: 8.0 mg/kg/injection, schedule: Q01DX009 (ip), vehicle: suspension in saline) 96 % of control; (dose: 16.0 mg/kg/injection, schedule: Q01DX009 (ip), vehicle: suspension in saline) 96 % of control; (dose: 32.0 mg/kg/injection, schedule: Q01DX009 (ip), vehicle: suspension in saline) 100 % of control; (dose: 64.0 mg/kg/injection, schedule: Q01DX009 (ip), vehicle: suspension in saline) 88 % of control.
On to `O=[N+]([O-])O.[Ga]`, for which the T/C was 111 % of control under setting [4]; 111 % of control (dose: 64.0 mg/kg/injection, schedule: Q01DX005 (ip), vehicle: saline); 104 % of control (dose: 128.0 mg/kg/injection, schedule: Q01DX005 (ip), vehicle: saline).
As for `CC(=O)N(C)c1ccc(Nc2cc(C)[nH]c3ccc4ncnc4c23)cc1`, the T/C (dose: 10.0 mg/kg/injection, schedule: Q01DX005 (ip), vehicle: saline) was 107 % of control; the T/C (dose: 20.0 mg/kg/injection, schedule: Q01DX005 (ip), vehicle: saline) was 106 % of control; the T/C (dose: 40.0 mg/kg/injection, schedule: Q01DX005 (ip), vehicle: saline) is 104 % of control.

The values are drawn from PubChem BioAssay AID334 (DTP/NCI, 2004).
